From PubChem BioAssay AID330 (DTP/NCI, 2004)
Where “and” joins values, the source holds several entries; their conditions need not be identical. Equal entries are not always repeated. Toxic doses and inconclusive results are not listed.

System: P388 leukemia ip, CD2F1 mice, survival T/C
Experiment: NCI In Vivo Anticancer Drug Screen. Data for tumor model P388 Leukemia (intraperitoneal) in CD2F1 (CDF1) mice
Conditions: endpoint: median survival time, higher = longer survival
How it was run: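 Mice carrying the transplanted tumor received test compound or vehicle. Survival was recorded in each group, and the value is the treated-group measurement divided by that of the vehicle-treated control group.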

[1] = dose: 6.25 mg/kg/injection, schedule: Q01DX009 (ip), vehicle: saline with Tween-80
[2] = dose: 12.5 mg/kg/injection, schedule: Q01DX009 (ip), vehicle: saline with Tween-80
[3] = dose: 25.0 mg/kg/injection, schedule: Q01DX009 (ip), vehicle: saline with Tween-80
[4] = dose: 50.0 mg/kg/injection, schedule: Q01DX009 (ip), vehicle: saline with Tween-80
[5] = dose: 50.0 mg/kg/injection, schedule: Q01DX005 (ip), vehicle: Klucel (hydroxypropylcellulose) (HPC)
[6] = dose: 100.0 mg/kg/injection, schedule: Q01DX005 (ip), vehicle: Klucel (hydroxypropylcellulose) (HPC)
[7] = dose: 200.0 mg/kg/injection, schedule: Q01DX005 (ip), vehicle: Klucel (hydroxypropylcellulose) (HPC)
[8] = dose: 50.0 mg/kg/injection, schedule: Q01DX009 (ip), vehicle: saline
[9] = dose: 100.0 mg/kg/injection, schedule: Q01DX009 (ip), vehicle: saline
[10] = dose: 200.0 mg/kg/injection, schedule: Q01DX009 (ip), vehicle: saline
[11] = dose: 60.0 mg/kg/injection, schedule: Q01DX005 (ip), vehicle: saline with Tween-80
[12] = dose: 120.0 mg/kg/injection, schedule: Q01DX005 (ip), vehicle: saline with Tween-80
[13] = dose: 50.0 mg/kg/injection, schedule: Q01DX005 (ip), vehicle: saline with Tween-80
[14] = dose: 25.0 mg/kg/injection, schedule: Q01DX005 (ip), vehicle: Klucel (hydroxypropylcellulose) (HPC)
[15] = dose: 100.0 mg/kg/injection, schedule: Q01DX009 (ip), vehicle: saline with Tween-80
[16] = dose: 100.0 mg/kg/injection, schedule: Q01DX005 (ip), vehicle: saline with Tween-80
[17] = dose: 200.0 mg/kg/injection, schedule: Q01DX005 (ip), vehicle: saline with Tween-80
[18] = dose: 100.0 mg/kg/injection, schedule: Q01DX009 (ip), vehicle: Klucel (hydroxypropylcellulose) (HPC)
[19] = dose: 200.0 mg/kg/injection, schedule: Q01DX009 (ip), vehicle: Klucel (hydroxypropylcellulose) (HPC)
[20] = dose: 400.0 mg/kg/injection, schedule: Q01DX009 (ip), vehicle: Klucel (hydroxypropylcellulose) (HPC)
[21] = dose: 240.0 mg/kg/injection, schedule: Q01DX005 (ip), vehicle: saline with Tween-80

O=[N+]([O-])c1cccc2nsnc12
T/C [1]: 100 % of control | T/C [2]: 116 % of control | T/C [3]: 94 % of control | T/C [4]: 107 % of control

CN(C)C1(C)CCC2C3CCC4=CC(=O)CCC4(C)C3CCC21C (stereo not given)
T/C [5]: 97 % of control | T/C [6]: 97 % of control | T/C [7]: 100 % of control

NCC(OCCCC(=O)O)C(Cl)(Cl)Cl (stereo not given)
T/C [8]: 93 % of control | T/C [9]: 101 % of control | T/C [10]: 100 % of control

NC(CCC(=O)NC(CS)C(=O)O)C(=O)O (stereo not given)
T/C [8]: 100 % of control | T/C [9]: 111 % of control

CNC(=O)N(N=O)c1[nH]c(=O)ncc1Cl
T/C [11]: 116 % of control | T/C [12]: 116 % of control

CC1CC2(c3ccccc3)C(=O)NC(=O)N=C2O1 (stereo not given)
T/C (dose: 100.0 mg/kg/injection, schedule: Q04DX002 (ip), vehicle: Klucel (hydroxypropylcellulose) (HPC)): 105 % of control | T/C (dose: 200.0 mg/kg/injection, schedule: Q04DX002 (ip), vehicle: Klucel (hydroxypropylcellulose) (HPC)): 109 % of control | T/C (dose: 400.0 mg/kg/injection, schedule: Q04DX002 (ip), vehicle: Klucel (hydroxypropylcellulose) (HPC)): 105 % of control

CSC(=S)/N=c1\ccc(C)cn1C
T/C (dose: 12.5 mg/kg/injection, schedule: Q04DX002 (ip), vehicle: saline with Tween-80): 100 % of control | T/C (dose: 25.0 mg/kg/injection, schedule: Q04DX002 (ip), vehicle: saline with Tween-80): 100 % of control | T/C (dose: 50.0 mg/kg/injection, schedule: Q04DX002 (ip), vehicle: saline with Tween-80): 99 % of control

COc1ccc(CC(NC(=O)NSc2ccccc2)C(=O)NC2C(CO)OC(n3cnc4c(N(C)C)ncnc43)C2O)cc1 (stereo not given)
T/C (dose: 12.5 mg/kg/injection, schedule: Q01DX005 (ip), vehicle: saline with Tween-80): 90 % of control | T/C (dose: 25.0 mg/kg/injection, schedule: Q01DX005 (ip), vehicle: saline with Tween-80): 93 % of control | T/C [13]: 88 % of control and 91 % of control

C[C@@H]1C(=O)C[C@H]2C(C)(C)CCC[C@]2(C)[C@@]1(O)CCc1ccoc1
T/C [14]: 100 % of control | T/C [5]: 100 % of control | T/C [6]: 100 % of control | T/C [7]: 96 % of control

CC(C)(C)C1CCC(=NSC(c2ccccc2)(c2ccccc2)c2ccccc2)CC1 (stereo not given)
T/C (dose: 100.0 mg/kg/injection, schedule: Q04DX002 (ip), vehicle: saline with Tween-80): 95 % of control | T/C (dose: 200.0 mg/kg/injection, schedule: Q04DX002 (ip), vehicle: saline with Tween-80): 87 % of control | T/C (dose: 400.0 mg/kg/injection, schedule: Q04DX002 (ip), vehicle: saline with Tween-80): 89 % of control

FC(F)(F)c1ccc2c(c1)N=C(NNC1=Nc3cc(C(F)(F)F)ccc3SC1)CS2
T/C (dose: 15.0 mg/kg/injection, schedule: Q01DX005 (ip), vehicle: saline with Tween-80): 91 % of control | T/C (dose: 30.0 mg/kg/injection, schedule: Q01DX005 (ip), vehicle: saline with Tween-80): 86 % of control

CCCCN1CN(CCCC)CN(C(=S)c2c(Cl)cccc2Cl)C1
T/C [3]: 102 % of control | T/C [4]: 102 % of control | T/C [15]: 105 % of control

CCOP(=S)(OCC)Oc1cc(C)nc(C(C)C)n1
T/C [4]: 112 % of control | T/C [15]: 111 % of control

CS/C(=C1/C(=O)N(c2ccccc2)N=C1c1ccc(Cl)cc1)N1CC1
T/C (dose: 25.0 mg/kg/injection, schedule: Q04DX003 (ip), vehicle: Klucel (hydroxypropylcellulose) (HPC)): 96 % of control | T/C (dose: 50.0 mg/kg/injection, schedule: Q04DX003 (ip), vehicle: Klucel (hydroxypropylcellulose) (HPC)): 99 % of control | T/C (dose: 100.0 mg/kg/injection, schedule: Q04DX003 (ip), vehicle: Klucel (hydroxypropylcellulose) (HPC)): 99 % of control | T/C (dose: 200.0 mg/kg/injection, schedule: Q04DX003 (ip), vehicle: Klucel (hydroxypropylcellulose) (HPC)): 99 % of control | T/C (dose: 400.0 mg/kg/injection, schedule: Q04DX003 (ip), vehicle: Klucel (hydroxypropylcellulose) (HPC)): 91 % of control

CCOC(=O)Cc1oc2c(C(C)=O)c(O)c(C)c(O)c2c1C
T/C [5]: 88 % of control | T/C [6]: 89 % of control | T/C [7]: 87 % of control

CCCCNC(=O)[C@@H]1C[C@H](OP(c2ccccc2)c2ccccc2)CN1P(c1ccccc1)c1ccccc1
T/C [13]: 100 % of control | T/C [16]: 100 % of control | T/C [17]: 99 % of control

CN(C)c1ccsc(=S)c1
T/C (dose: 6.25 mg/kg/injection, schedule: Q01DX005 (ip), vehicle: Klucel (hydroxypropylcellulose) (HPC)): 102 % of control | T/C (dose: 12.5 mg/kg/injection, schedule: Q01DX005 (ip), vehicle: Klucel (hydroxypropylcellulose) (HPC)): 101 % of control | T/C [14]: 105 % of control | T/C [5]: 98 % of control

N#CC1=C(N)OC(C2CC2)=C(C#N)C1c1cccs1 (stereo not given)
T/C (dose: 60.0 mg/kg/injection, schedule: Q01DX005 (ip), vehicle: Klucel (hydroxypropylcellulose) (HPC)): 104 % of control | T/C (dose: 120.0 mg/kg/injection, schedule: Q01DX005 (ip), vehicle: Klucel (hydroxypropylcellulose) (HPC)): 100 % of control | T/C (dose: 240.0 mg/kg/injection, schedule: Q01DX005 (ip), vehicle: Klucel (hydroxypropylcellulose) (HPC)): 96 % of control

ClCCOCCOc1c(Cl)cc(Cl)cc1Cl
T/C [18]: 93 % of control | T/C [19]: 103 % of control | T/C [20]: 100 % of control

COC1=CC(=C(c2ccc(O)c(OC)c2)c2ccc(O)c(OC)c2)C=CC1=O
T/C [13]: 117 % of control | T/C [16]: 119 % of control | T/C [17]: 115 % of control

Nc1ccccc1N1CCNCC1
T/C (dose: 12.5 mg/kg/injection, schedule: Q04DX003 (ip), vehicle: saline): 100 % of control | T/C (dose: 25.0 mg/kg/injection, schedule: Q04DX003 (ip), vehicle: saline): 100 % of control | T/C (dose: 50.0 mg/kg/injection, schedule: Q04DX003 (ip), vehicle: saline): 98 % of control and 101 % of control

Cc1ccc(C)c(NC(=O)C(=O)C(C#N)c2c(Cl)cccc2Cl)c1 (stereo not given)
T/C [11]: 96 % of control | T/C [12]: 102 % of control | T/C [21]: 99 % of control

COc1ccccc1N1C(=O)CC(Sc2ccccc2N)C1=O (stereo not given)
T/C (dose: 100.0 mg/kg/injection, schedule: Q04DX003 (ip), vehicle: saline with Tween-80): 104 % of control | T/C (dose: 200.0 mg/kg/injection, schedule: Q04DX003 (ip), vehicle: saline with Tween-80): 90 % of control | T/C (dose: 400.0 mg/kg/injection, schedule: Q04DX003 (ip), vehicle: saline with Tween-80): 90 % of control

CCOC(=O)c1cnc(NCCCCCCNc2ncc(C(=O)OCC)c(=O)[nH]2)[nH]c1=O
T/C [5]: 97 % of control | T/C [6]: 91 % of control

c1ccc2c(c1)ncc1cccn12
T/C (dose: 50.0 mg/kg/injection, schedule: Q01DX009 (ip), vehicle: Klucel (hydroxypropylcellulose) (HPC)): 106 % of control | T/C [18]: 107 % of control | T/C [19]: 105 % of control | T/C [20]: 106 % of control

Cn1nc(-c2ccc(Cl)c(Cl)c2)[n+]([O-])c2c(=O)n(C)c(=O)nc1-2
T/C [1]: 120 % of control | T/C [2]: 110 % of control and 115 % of control

CC1CCn2c(nc3c2c(=O)n(C)c(=O)n3C)N1 (stereo not given)
T/C [11]: 102 % of control and 100 % of control | T/C [12]: 93 % of control and 94 % of control | T/C [21]: 93 % of control and 91 % of control

COCCCN(Cc1cc(OC)c(OC)c(OC)c1)C(=S)Nc1cccc(Cl)c1
T/C [8]: 92 % of control | T/C [9]: 90 % of control | T/C [10]: 94 % of control

CC(C)C1=CC23CCC4C(C)(C(N)=O)CCCC4(C)C2CC1C1C(=O)OC(=O)C13 (stereo not given)
T/C (dose: 100.0 mg/kg/injection, schedule: Q01DX001 (ip), vehicle: saline with Tween-80): 91 % of control

O.Oc1ccccc1C=NCCC[N-]CCCN=Cc1ccccc1O.[Co]
T/C (dose: 3.13 mg/kg/injection, schedule: Q01DX009 (ip), vehicle: saline with Tween-80): 102 % of control | T/C [1]: 102 % of control | T/C [2]: 123 % of control | T/C [3]: 100 % of control and 115 % of control

COC(=O)N1c2ccccc2N(C(=O)OC)c2c1oc1ccccc1c2=O
T/C [11]: 92 % of control | T/C [12]: 91 % of control | T/C [21]: 101 % of control

Cc1cc(C)nc(NC(N)=NCCc2ccccc2)n1
T/C (dose: 12.5 mg/kg/injection, schedule: Q04DX003 (ip), vehicle: saline with Tween-80): 104 % of control | T/C (dose: 25.0 mg/kg/injection, schedule: Q04DX003 (ip), vehicle: saline with Tween-80): 100 % of control | T/C (dose: 50.0 mg/kg/injection, schedule: Q04DX003 (ip), vehicle: saline with Tween-80): 100 % of control
